Measured values taken from patent US4138480A, “Novel anthracycline glycosides and methods of preparing the same” (priority 1976, dated 1979).
Entries after “also recorded” stand apart in the source; their conditions may differ. One block for each compound: values may come before it.

Assays:
[1] = target: T1, ATPase sodium-potassium dependent enzyme (Na-K ATPase) (Oryctolagus cuniculus, UniProt Q9N0Z6); assay: Activity of the ATPase Na-K dependent enzyme isolated from rabbit heart; format: biochemical
T1 construct: isolated from rabbit heart; from tissue; host or cells: rabbit heart
Source text: (§1) From these facts, it can be deduced, on the basis of the results of Table I as well, that the metallic derivative of doxorubicin formed with the metal proportion 2:1 or higher, lacks the inhibiting effect on the Na-K ATPase, that is to say, they would lack cardiotoxicity. […] The remaining chelates described herein may be expected to behave similarly. […] The compounds have the structure depicted in Formula I wherein R is as in Formula II and R1 is as given.

[2] = system: leukemia 1210 mouse cells; assay: Inhibition of DNA synthesis of leukemia 1210 mouse cells; format: cell-based; conditions: read-out: Percent of Inhibition of DNA Synthesis
[3] = Toxicity: survivors after one intraperitoneal injection in mice; conditions: mouse, in vivo, ip
Procedure: The drugs were administered by only one intraperitoneal injection to groups of ten mice and the numbers of survivors were recorded after eight days.

[4] = system: leukemia P-338 of the mouse; assay: Therapeutic activity in leukemia P-338 of the mouse; format: in vivo; conditions: 0 mg/kg 11 days
leucocytes = assay: Hematological toxicity, leucocyte count; format: in vivo; conditions: day 7, day 0 4.700
[5] = Passage of hematoencephalic and intestinal barriers; conditions: in vivo
[6] = cumulative doses; cited from earlier work
rabbit electrocardiogram = assay: Electrocardiographic alterations after intravenous injection to the rabbit
[7] = system: spleen weight and immunocompetent cells; assay: Comparative testing of immunosuppressive properties (spleen weight, immunocompetent cells)
Na-K ATPase = Na-K ATPase (Oryctolagus cuniculus, UniProt Q9N0Z6); assay: 50% inhibition of Na-K ATPase by doxorubicin analogs; format: biochemical; conditions: read-out: Concentration for 50% Inhibition NaK ATPase
Source text: as §1

[8] = read-out: Percent of the ATPase Na-K Dependent Activity

SMILES: COc1cccc2c1C(=O)c1c(O)c3c(c(O)c1C2=O)C[C@@](O)(C(=O)CO)C[C@@H]3O[C@H]1C[C@H](N)[C@H](O)[C@H](C)O1 [Doxorubicin]
effect of calcium on ATPase inhibition [1]: counteracted by calcium
inhibition of Na-K ATPase, in words [1]: strong inhibitor; also recorded: potent inhibitor
activity at 10 pM [1, 8]: 40%
activity at 0.001 µM [1, 8]: 25%
activity at 0.1 µM [1, 8]: 25%
activity at 10 µM [1, 8]: 25%
activity at 100 fM [1, 8]: 65%
inhibition at 3 µM ([2]; 3 μM): 60%
inhibition at 5 µM ([2]; 5 μM): 68%
inhibition at 7.5 µM ([2]; 7.5 μM): 75%
inhibition at 10 µM ([2]; 10 μM): 90%
survival at 192 h ([3]; 10 mg/kg): 100%
survival at 192 h ([3]; 20 mg/kg): 60%
survival at 192 h ([3]; 30 mg/kg): 0%
survival at 192 h ([3]; 40 mg/kg): 0%
survival at 192 h ([3]; 50 mg/kg): 0%
survival at 192 h ([3]; 60 mg/kg): 0%
Days of Mean Survival of Leukemic Mice ([4]; 4 mg/kg i.p.): 50 days
Days of Mean Survival of Leukemic Mice ([4]; 8 mg/kg i.p.): 48 days
Days of Mean Survival of Leukemic Mice ([4]; 12 mg/kg i.p.): 42 days
Days of Mean Survival of Leukemic Mice ([4]; 24 mg/kg i.p.): 6 days
Days of Mean Survival of Leukemic Mice ([4]; 36 mg/kg i.p.): 4 days
Leucocyte Count/mm^3 (leucocytes; 10 mg/kg): 3.300 /mm^3
Leucocyte Count/mm^3 (leucocytes; 20 mg/kg): 2.400 /mm^3
passing both hematoencephalic and intestinal barriers [5]: does not to an effective degree
cumulative dose attended by severe, oftentimes lethal cardiotoxicity [6]: > 500 mg. per square meter
alterations of the electrocardiogram, in words (rabbit electrocardiogram): very intense
immunosuppression (spleen weight and immunocompetent cells) [7]: depressed spleen weight and immunocompetent cells to a significant extent

SMILES: CCCCC(=O)NN=C(C)[C@]1(O)Cc2c(O)c3c(c(O)c2[C@@H](O[C@H]2C[C@H](N)[C@H](O)[C@H](C)O2)C1)C(=O)c1c(OC)cccc1C3=O [NSC-211391]
IC50 (Na-K ATPase): 1 µM

SMILES: COc1cccc2c1C(=O)c1c(O)c3c(c(O)c1C2=O)C[C@@](O)(C(CO)=NNC(=O)c1ccccc1)C[C@@H]3O[C@H]1C[C@H](N)[C@H](O)[C@H](C)O1 [NSC-216071]
IC50 (Na-K ATPase): 10 µM

SMILES: COc1ccc(C(=O)NN=C(C)[C@]2(O)Cc3c(O)c4c(c(O)c3[C@@H](O[C@H]3C[C@H](N)[C@H](O)[C@H](C)O3)C2)C(=O)c2c(OC)cccc2C4=O)cc1 [NSC-219976]
IC50 (Na-K ATPase): 0.001 µM

SMILES: COc1cccc2c1C(=O)c1c(O)c3c(c(O)c1C2=O)C[C@@](O)(C(C)=NNC(=O)c1ccc(O)cc1)C[C@@H]3O[C@H]1C[C@H](N)[C@H](O)[C@H](C)O1 [NSC-221264]
IC50 (Na-K ATPase): 0.0001 µM

SMILES: COc1cccc2c1C(=O)c1c(O)c3c(c(O)c1C2=O)C[C@@](O)(C(C)=NNC(=O)c1ccc([N+](=O)[O-])cc1)C[C@@H]3O[C@H]1C[C@H](N)[C@H](O)[C@H](C)O1 [NSC-221265]
IC50 (Na-K ATPase): 10 µM

IC50 (Na-K ATPase): 1 µM
SMILES: COc1cccc2c1C(=O)c1c(O)c3c(c(O)c1C2=O)C[C@@](O)(/C(C)=N/NC(=O)c1ccc(Cl)c(Cl)c1)C[C@@H]3OC1CC(N)C(O)C(C)O1 (stereo partly shown) [NSC-221266]

SMILES: COc1cccc2c1C(=O)c1c(O)c3c(c(O)c1C2=O)C[C@@](O)(C(C)=NNC(=O)c1ccc(N(C)C)cc1)C[C@@H]3O[C@H]1C[C@H](N)[C@H](O)[C@H](C)O1 [NSC-227013]
IC50 (Na-K ATPase): 0.0001 µM

IC50 (Na-K ATPase): 0.1 µM
SMILES: CCc1ccc(C(=O)N/N=C(\C)[C@]2(O)Cc3c(O)c4c(c(O)c3[C@H](O[C@H]3C[C@H](N)[C@H](O)[C@H](C)O3)C2)C(=O)c2c(OC)cccc2C4=O)cc1 [NSC-233854]

SMILES: CCCOc1ccc(C(=O)NN=C(C)[C@]2(O)Cc3c(O)c4c(c(O)c3[C@@H](O[C@H]3C[C@H](N)[C@H](O)[C@H](C)O3)C2)C(=O)c2c(OC)cccc2C4=O)cc1 [NSC-234740]
IC50 (Na-K ATPase): 0.01 µM

IC50 (Na-K ATPase): 0.001 µM
SMILES: COc1cccc2c1C(=O)c1c(O)c3c(c(O)c1C2=O)CC(O)(/C(C)=N/NC(=O)c1ccc(-c2ccccc2)cc1)CC3OC1CC(N)C(O)C(C)O1 (stereo not shown) [NSC-236672]

SMILES: COC(=O)[C@]1(O)Cc2c(O)c3c(c(O)c2[C@@H](O[C@H]2C[C@H](N)[C@H](O)[C@H](C)O2)C1)C(=O)c1c(OC)cccc1C3=O [NSC-237638]
IC50 (Na-K ATPase): 0.001 µM

IC50 (Na-K ATPase): 10 µM
SMILES: COc1cccc2c1C(=O)c1c(O)c3c(c(O)c1C2=O)C[C@@](O)(/C(CO)=N/NC(=O)c1ccc(Cl)c(Cl)c1)C[C@@H]3OC1CC(N)C(O)C(C)O1 (stereo partly shown) [NSC-237672]
